Reference: EPA's ToxRefDB 2

What was measured:
rat [1] = conditions: Multigenerational reproductive toxicity study, sprague dawley, Oral, Feed, dose end: 2 generation
mouse [2] = conditions: Carcinogenicity, b6c3f1, Oral, Feed, dose end: 2 year, group: systemic
rat [3] = conditions: Subchronic oral toxicity in rodents, fischer, Feed, dose end: 13 week, group: systemic
rat [4] = conditions: Chronic toxicity, fischer, Oral, Feed, dose end: 103 week, group: systemic
mouse [5] = conditions: Carcinogenicity; b6c3f1; Oral; Feed; dose end: 103 week; group: systemic; systemic / in life observation / body weight / body weight
dog = conditions: Subchronic oral toxicity in nonrodent, beagle, Capsule, dose end: 26 week, group: systemic
mouse [6] = conditions: Subchronic oral toxicity in rodents, b6c3f1, Feed, dose end: 13 week, group: systemic
rat [7] = conditions: Combined chronic toxicity/carcinogenicity, fischer, Oral, Feed, dose end: 2 year, group: systemic
rat [8] = conditions: Prenatal developmental toxicity study, other, Oral, Gavage/Intubation, dose end: 19 GD
rat [9] = conditions: Carcinogenicity; fischer; Oral; Feed; dose end: 103 week; group: systemic; systemic / pathology microscopic / pituitary gland / hyperplasia
rat [10] = conditions: Multigenerational reproductive toxicity study, sprague dawley, Oral, Feed, dose end: 2 generation; remark: listed apart in the source
mouse [11] = conditions: Prenatal developmental toxicity study; cd1; Oral; Gavage/Intubation; dose end: 17 GD; group: developmental; systemic / in life observation / clinical signs / aggressive behavior + systemic / organ weight / testes / absolute
[12] = group: offspring, systemic / in life observation / body weight / offspring (pup) weight + systemic / in life observation / body weight / offspring (pup) …
[13] = group: parental, systemic / in life observation / body weight / body weight + systemic / in life observation / body weight / body weight gain
[14] = group: reproductive, reproductive / offspring survival early / litter size / litter size + reproductive / offspring survival early / birth index / live birth …
[15] = systemic / in life observation / body weight / body weight + systemic / in life observation / body weight / body weight gain
[16] = systemic / in life observation / body weight / body weight + systemic / in life observation / body weight / body weight gain + systemic / in…
[17] = systemic / in life observation / body weight / body weight + systemic / in life observation / clinical signs / fur (altered appearance) + …
[18] = systemic / pathology microscopic / skin / subcutaneous mass
[19] = systemic / clinical chemistry / cholesterol / cholesterol + systemic / clinical chemistry / glucose / glucose + systemic / hematology / …
[20] = systemic / in life observation / body weight / body weight + systemic / in life observation / mortality / mortality + systemic / organ …
[21] = systemic / organ weight / liver / relative to body weight + systemic / organ weight / liver / absolute
[22] = systemic / in life observation / body weight / body weight + systemic / in life observation / food consumption / food consumption + systemic…
[23] = group: developmental, systemic / in life observation / body weight / fetal weight
[24] = group: maternal, systemic / in life observation / clinical signs / abnormal movements + systemic / in life observation / clinical signs / salivation
[25] = group: offspring, systemic / in life observation / clinical signs / [other]
[26] = group: parental, systemic / organ weight / liver / relative to body weight

C=C(C)[C@H]1Cc2c(ccc3c2O[C@@H]2COc4cc(OC)c(OC)cc4[C@@H]2C3=O)O1 [Rotenone]
LEL (rat [1]; [12]): 3.1 mg/kg/day
LOAEL (rat [1]; [12]): 3.1 mg/kg/day
NEL (rat [1]; [12]): 0.6 mg/kg/day
NOAEL (rat [1]; [12]): 0.6 mg/kg/day
LEL (rat [1]; [13]): 3 mg/kg/day
LOAEL (rat [1]; [13]): 3 mg/kg/day
NEL (rat [1]; [13]): 0.6 mg/kg/day
NOAEL (rat [1]; [13]): 0.6 mg/kg/day
LEL (rat [1]; [14]): 7 mg/kg/day
LOAEL (rat [1]; [14]): > 7 mg/kg/day
NEL (rat [1]; [14]): 3.1 mg/kg/day
NOAEL (rat [1]; [14]): ≥ 7 mg/kg/day
LOAEL (mouse [2]; [15]): 111 mg/kg/day
NOAEL (mouse [2]; [15]): < 111 mg/kg/day
LEL (mouse [2]; [16]): 111 mg/kg/day
NEL (mouse [2]; [16]): < 111 mg/kg/day
LOAEL (rat [3]; [17]): > 60 mg/kg/day
NEL (rat [3]; [17]): 3.75 mg/kg/day
NOAEL (rat [3]; [17]): ≥ 60 mg/kg/day
LEL (rat [3]; systemic / in life observation / body weight / body weight + systemic / pathology microscopic / bone marrow / atrophy + systemic / pathology…): 7.5 mg/kg/day
LOAEL (rat [4]; systemic / pathology microscopic / pituitary gland / hyperplasia + systemic / pathology microscopic / parathyroid gland / hyperplasia): 3.4 mg/kg/day
NOAEL (rat [4]; systemic / pathology microscopic / pituitary gland / hyperplasia + systemic / pathology microscopic / parathyroid gland / hyperplasia + …): 1.7 mg/kg/day
LEL (rat [4]; [18]): 1.8 mg/kg/day
NEL (rat [4]; [18]): < 1.8 mg/kg/day
LEL (mouse [5]): 111 mg/kg/day
LOAEL (mouse [5]): > 242 mg/kg/day
NEL (mouse [5]): < 111 mg/kg/day
NOAEL (mouse [5]): ≥ 242 mg/kg/day
LOAEL (dog; [19]): 10 mg/kg/day
NEL (dog; [19]): 0.4 mg/kg/day
NOAEL (dog; [19]): 2 mg/kg/day
LEL (dog; [16]): 2 mg/kg/day
LOAEL (mouse [6]; [20]): > 7500 mg/kg/day
NOAEL (mouse [6]; [20]): ≥ 7500 mg/kg/day
LEL (mouse [6]; [21]): 90 mg/kg/day
NEL (mouse [6]; [21]): < 90 mg/kg/day
LOAEL (rat [7]; systemic / in life observation / body weight / body weight + systemic / in life observation / food consumption / food consumption): 1.88 mg/kg/day
LEL (rat [7]; [22]): 1.88 mg/kg/day
NEL (rat [7]; [22]): 0.375 mg/kg/day
NOAEL (rat [7]; [22]): 0.375 mg/kg/day
LEL (rat [8]; [23]): 6 mg/kg/day
LOAEL (rat [8]; [23]): 6 mg/kg/day
NEL (rat [8]; [23]): 3 mg/kg/day
NOAEL (rat [8]; [23]): 3 mg/kg/day
LEL (rat [8]; [24]): 0.75 mg/kg/day
LOAEL (rat [8]; [24]): 0.75 mg/kg/day
NEL (rat [8]; [24]): < 0.75 mg/kg/day
NOAEL (rat [8]; [24]): < 0.75 mg/kg/day
LEL (rat [9]): 3.4 mg/kg/day
LOAEL (rat [9]): > 3.4 mg/kg/day
NEL (rat [9]): 1.7 mg/kg/day
NOAEL (rat [9]): ≥ 3.4 mg/kg/day

Clc1ccc(C(c2ccccc2Cl)C(Cl)(Cl)Cl)cc1 (centres undefined) [o,p'-DDT]
LEL (rat [10]; [25]): 10 mg/kg/day
LOAEL (rat [10]; [25]): > 10 mg/kg/day
NEL (rat [10]; [25]): 1 mg/kg/day
NOAEL (rat [10]; [25]): ≥ 10 mg/kg/day
LEL (rat [10]; [26]): 10 mg/kg/day
LOAEL (rat [10]; [26]): > 10 mg/kg/day
NEL (rat [10]; [26]): 1 mg/kg/day
NOAEL (rat [10]; [26]): ≥ 10 mg/kg/day
LEL (mouse [11]): 18 mg/kg/day
LOAEL (mouse [11]): > 180 mg/kg/day
NEL (mouse [11]): < 18 mg/kg/day
NOAEL (mouse [11]): ≥ 180 mg/kg/day
